Consider 2 molecules from US7238469B2, “Carbon monoxide improves outcomes in tissue and organ transplants and suppresses apoptosis” (priority 2001, dated 2007).

For one series, the system named is βTC3 cells. Briefly: DNA fragmentation analysis (FACScan) of βTC3 treated with TNF-α. The following applies: exogenous CO 1% for 24 hours. The format is cell-based, murine. On the procedure:
βTC3 cultures were incubated with recombinant TNF-α (500 or 1000 U/ml) (R&D Systems) for 24 hours and islet cultures were stimulated with TNF-É (5000 U/ml) (R&D Systems) and cyclohexamide (CHX) (50 μg/ml) for 48 hours. βTC3 or islets were harvested, dispersed, fixed in 70% ethanol, and suspended in DNA staining buffer (PBS, pH 7.4, containing 0.1% Triton X-100, 0.1 mM EDTA, 50 μg/ml propidium iodide, […] Rnase A). DNA content was analyzed on a FACScan™ analyzer equipped with Cell QuestO Software (Becton Dickinson, Palo Alto, Calif.). Cells with a normal DNA content (2N) were scored as viable, whereas cells with a hypoploid DNA content (<2N, termed A^0) were scored as apoptotic. To exclude debris and apoptotic cell-free fragments, all events with an FL-2 area profile below that of chicken erythrocyte nuclei were excluded from analysis.
Cells and islets were exposed to 1% carbon monoxide in compressed air balanced with 5% CO2, as described elsewhere (see, e.g., Otterbein et al., Nature Med. 6:422–428, 2000). […]
Whether exogenous carbon monoxide could protect β-cells from apoptosis was investigated (FIGS. 2A–C). […] After 24 hours cells were stained by propidium iodide and analyzed for DNA fragmentation on a FACScan™. […]

Series [1] has as its system Brown Norway aortas transplanted into Lewis rats. In words: Aortic transplant model (transplant-associated arteriosclerosis). The format is in vivo, rat. Conditions: allogeneic recipients exposed to CO 250 ppm for 56 days. On the procedure:
Aortic transplantation was carried out done as described elsewhere (Plissonnier et al., Transplantation 60:414–424, 1995). […] After additional left thoracotomy, three or four pairs of the inter-costal arteries were ligated using 7-0 nylon suture (Keisei Medical Industrial Co., LTD, Tokyo, Japan), and 2 cm of the descending aorta was harvested. The graft was inserted between the renal arteries and the aortic bifurcation by standard microsurgery technique using 9-0 Nylon sutures (Ethilon™, Ethicon, Inc, Somerville, N.J.). The native abdominal aorta was left after both edges were ligated.
CO at a concentration of 1% (10,000 parts per million; ppm) in compressed air was mixed with balanced air (21% oxygen) as described previously (Otterbein et al., Am J Physiol 276(4 Pt 1):L688–L694, 1999). For the transplant model, graft donors were placed in the CO chamber two days before transplantation. Recipients were placed in the chamber immediately following transplantation and kept there 56 days. CO concentration was maintained at 250 ppm at all times.
Adult male (250–350 g) Brown Norway rats (RT1 were used as aortic graft donors and adult male (250–350 g) Lewis rats (RT1) as recipients (Charles River Lab. Wilmington, Mass.). Male C57BL/6, p21^−/− and p53^−/− null mice were purchased from Jackson Laboratory (Bar Harbor, Me.). The MKK3^(−/−) null mice were generated as previously described (Lu et al., EMBO. J. 18:1845–1857, 1999). Mice were allowed to acclimate for one week with rodent chow and water ad libitum.
Brown Norway aortas were transplanted into Brown Norway rats (syngeneic), untreated Lewis rats (allogeneic), or Lewis rats exposed to carbon monoxide (250 ppm; allogeneic with carbon monoxide). Samples were harvested 56 days after transplantation and stained by a modified elastic tissue-masson trichrome, or by eosin hematoxylin. Brown Norway aortic segments transplanted into Lewis rats developed arteriosclerotic lesions that are consistent with those associated with chronic graft rejection (data not shown). […]

The conditions of series [2]: water at 0° C.; cited from earlier work.
The subject of the next series is HO-1. In words: Western blot of HO-1 expression in cultured endothelial cells. The format is cell-based, mouse. The following applies: data not shown. On the procedure:
Endothelial cells were washed in PBS (pH 7.2), harvested by scraping, and lysed in Laemmli buffer. Electrophoresis was conducted under denaturing conditions with 10% polyacrylamide gels. Proteins were transferred onto a polyvinyldifluoridine membrane (immobilon P; Millipore, Bedford, Mass.) by electroblotting and detected with rabbit polyclonal Abs directed against human HO-1 or HO-2 (StressGen, Victoria, Canada) or é-tubulin (Boehringer Mannheim, Mannheim, Germany). Proteins were visualized by using HRP-conjugated donkey anti-rabbit IgG or goat anti-mouse IgG (Pierce) and the ECL assay (Amersham Life Science, Arlington Heights, Ill.) according to manufacturer's instructions.

Take `[C-]#[O+]` [CO, carbon monoxide]: in the series with βTC3 cells, the “apoptotic cells (DNA fragmentation analysis)” value came to 11.7%. In series [1], the “accumulation of leukocytes into the adventitia” value is recorded as “inhibited”, the “intimal hyperplasia in aortic grafts” value is “inhibited” and the “loss of medial SMC” value was “no significant effect on loss of medial SMC”. Moreover, in series [2], the saturation point result is listed as “about 0.0044 g CO/100 g medium”.
With `C=Cc1c2[n-]c(c1C)/C=c1\[n-]/c(c(C)c1C=C)=C\c1[n-]c(c(CCC(=O)O)c1C)C=c1[n-]/c(c(C)c1CCC(=O)O)=C\2.[Sn+4]` [SnPPIX, tin protoporphyrin IX], the “expression of HO-1 in cultured endothelial cells” value in the series with HO-1 is on record as “up-regulated the expression of HO-1”.
